Results taken from patent US20240210394A1, “MICROORGANISM CAPTURE FROM ANTIMICROBIAL-CONTAINING SOLUTION” (MOMENTUM BIOSCIENCE LIMITED, priority 2019, published 2024).

Legend:
[1] = system: E. coli; assay: Blood culture time to positivity (flip time), bead rescue vs no-rescue control; format: cell-based; conditions: Meropenem 49 mg/L blood; for Flip time: Bead rescue; for Flip time in Days: Control (FA plus bottle)
Description: (§1) Day 1: Prepare overnight culture of test organism in blood/broth medium (50:50 blood:broth) and incubate at 37° C. in a shaking incubator.
Day 2: Prepare ten-fold serial dilution of overnight culture in blood/broth as required and incubate at 37° C. for 2 h for outgrowth.
Add 5 mL of spiked blood+beads (set 1) and 5 mL of spiked blood/Abx+beads (set 3) to blood culture bottles (BioMerieux SA culture bottle) using a vial adapter (West Pharmaceutical Services, Inc. PA, US).
Remove the adaptor and incubate the blood culture bottles in the automated blood culture cabinet (BacT/ALERT BioMerieux) for up to 5 days.
(§2) Record the “Flip” time of each bottle or bottle result at the end of 5 days incubation. The “Flip” time is when a bottle turns positive as determined by the automated blood culture cabinet, which records time to positivity.
(§3) Day 1: Prepare overnight culture of test organism in blood/broth medium (50:50 blood:broth) and incubate at 37° C. (or 30° C. for C. neoformans) in a shaking incubator.
(or 30° C. for C. neoformans) for 2 h for outgrowth. • Antibiotic added to whole blood (defibrinated horse blood) at required level • Whole blood as no-antibiotic control • Test dilution(s) of organism added to blood+antibiotic or blood only at 10 μL per mL of blood (sufficient prepared for experiment requirements) • 100 μL plate count sample taken (TO sample) • 2-hour incubation (static) at 37° C. (or 30° C. for C. neoformans) • 100 μL plate count sample taken (T2 sample) • 5 mL of spiked blood+abx or blood only added to blood culture bottle (using vial adapter) and incubation started (adapter removed) • 5 mL of spiked blood+abx or blood only (from same source) treated with Momentum Capture Beads as below: • 1. Capture Beads diluted in the relevant Capture Reagent—50 μL beads:700 μL capture reagent per clean-up • 2. 750 μL of diluted beads added to 50 mL conical centrifuge tube • 3. 5 mL of transfer medium added to tube • 4. 5 mL of spiked blood+abx or blood only added to tube • 5. […] Magnetise on V&P magnet for 10 min then remove supernatant • 7. Resuspend beads in 1 mL Detergent-free Wash Buffer (DWB) off magnet and transfer to 2 mL Eppendorf flip-top tube on DynaMag-2 magnet • 8. Magnetise for 3 min then remove supernatant • 9. Resuspend beads in 1 mL Detergent-free Wash Buffer (DWB) off magnet then replace on DynaMag-2 magnet • 10. Magnetise for 3 min then remove supernatant • 11. Resuspend beads in 1 mL DWB, add to new blood culture bottle (using vial adapter) and start incubation (adapter removed)
Momentum Capture Beads diluted in the relevant Capture Reagent—50 μL beads:700 μL capture reagent per clean-up • 2. 750 μL of diluted beads added to 50 mL conical centrifuge tube • 3. 5 mL of transfer medium added to tube • 4. 5 mL of spiked blood+abx or blood only added to tube • 5. […] Magnetise on V&P magnet for 10 min then remove supernatant • 7. Resuspend beads in 1 mL Detergent-free Wash Buffer (DWB) off magnet and transfer to 2 mL Eppendorf flip-top tube on DynaMag-2 magnet • 8. Magnetise for 3 min then remove supernatant • 9. Resuspend beads in 1 mL Detergent-free Wash Buffer (DWB) off magnet then replace on DynaMag-2 magnet • 10. Magnetise for 3 min then remove supernatant • 11. Resuspend beads in 1 mL DWB, add to an unused blood culture bottle (BioMerieux FA+culture bottle) using vial adapter and start incubation (adapter removed)

[2] = system: Klebsiella pneumoniae; assay: as above; format: cell-based; conditions: Meropenem 49 mg/L blood; for Flip time: Bead rescue; for Flip time in Days: Control (FA plus bottle)
Description: as §3
(§4) (or 30° C. for C. neoformans) for 2 h for outgrowth. • Antibiotic added to whole blood (defibrinated horse blood) at required level • Whole blood as no-antibiotic control • Test dilution(s) of organism added to blood+antibiotic or blood only at 10 μL per mL of blood (sufficient prepared for experiment requirements) • 100 μL plate count sample taken (TO sample) • 2-hour incubation (static) at 37° C. (or 30° C. for C. neoformans) • 100 μL plate count sample taken (T2 sample) • 5 mL of spiked blood+abx or blood only added to blood culture bottle (using vial adapter) and incubation started (adapter removed) • 5 mL of spiked blood+abx or blood only (from same source) treated with Momentum Capture Beads as below: • 1. Capture Beads diluted in the relevant Capture Reagent—50 μL beads:700 μL capture reagent per clean-up • 2. 750 μL of diluted beads added to 50 mL conical centrifuge tube • 3. 5 mL of transfer medium added to tube • 4. 5 mL of spiked blood+abx or blood only added to tube • 5. Incubate on ITL TherMix (32.5° C./30 min/1000 rpm—ramped speed protocol) • 6. Magnetise on V&P magnet for 10 min then remove supernatant • 7. Resuspend beads in 1 mL Detergent-free Wash Buffer (DWB) off magnet and transfer to 2 mL Eppendorf flip-top tube on DynaMag-2 magnet • 8. Magnetise for 3 min then remove supernatant • 9. Resuspend beads in 1 mL Detergent-free Wash Buffer (DWB) off magnet then replace on DynaMag-2 magnet • 10. Magnetise for 3 min then remove supernatant • 11. Resuspend beads in 1 mL DWB, add to new blood culture bottle (using vial adapter) and start incubation (adapter removed)
as §2, §1
(§5) Momentum Capture Beads diluted in the relevant Capture Reagent—50 μL beads:700 μL capture reagent per clean-up • 2. 750 μL of diluted beads added to 50 mL conical centrifuge tube • 3. 5 mL of transfer medium added to tube • 4. 5 mL of spiked blood+abx or blood only added to tube • 5. Incubate on ITL TherMix (32.5° C./30 min/1000 rpm—ramped speed protocol) • 6. Magnetise on V&P magnet for 10 min then remove supernatant • 7. Resuspend beads in 1 mL Detergent-free Wash Buffer (DWB) off magnet and transfer to 2 mL Eppendorf flip-top tube on DynaMag-2 magnet • 8. Magnetise for 3 min then remove supernatant • 9. Resuspend beads in 1 mL Detergent-free Wash Buffer (DWB) off magnet then replace on DynaMag-2 magnet • 10. Magnetise for 3 min then remove supernatant • 11. Resuspend beads in 1 mL DWB, add to an unused blood culture bottle (BioMerieux FA+culture bottle) using vial adapter and start incubation (adapter removed)

[3] = system: Pseudomonas aeruginosa; assay: as above; format: cell-based; conditions: Meropenem 49 mg/L blood
Description: as §3, §4, §2, §1, §5

[4] = system: E. coli; conditions: cited from earlier work
[5] = system: Klebsiella pneumoniae; conditions: K. pneumoniae; cited from earlier work
[6] = system: Pseudomonas aeruginosa; conditions: P. aeruginosa; cited from earlier work

SMILES: C[C@@H](O)[C@H]1C(=O)N2C(C(=O)O)=C(S[C@@H]3CN[C@H](C(=O)N(C)C)C3)[C@H](C)[C@H]12 [Meropenem]
- Flip time ([1]; 900 cfu/5 mL blood): 0.56 days
- Flip time ([1]; 150000 cfu/5 mL blood): 0.46 days
- Flip time ([1]; 1500000 cfu/5 mL blood): 0.43 days
- Flip time in Days ([1]; 900 cfu/5 mL blood): Neg
- Flip time in Days ([1]; 150000 cfu/5 mL blood): Neg
- Flip time in Days ([1]; 1500000 cfu/5 mL blood): Neg
- Flip time ([2]; 125000 cfu/5 mL blood): 0.43 days
- Flip time ([2]; 1250000 cfu/5 mL blood): 0.38 days
- Flip time in Days ([2]; 125000 cfu/5 mL blood): Neg
- Flip time in Days ([2]; 1250000 cfu/5 mL blood): Neg
- Flip time ([3]; Bead rescue, 1250 cfu/5 mL blood): 0.81 days
- Flip time ([3]; Bead rescue, 200000 cfu/5 mL blood): 0.54 days
- Flip time ([3]; Bead rescue, 2000000 cfu/5 mL blood): 0.46 days
- Flip time in Days ([3]; Control (FA plus bottle), 1250 cfu/5 mL blood): Neg
- Flip time ([3]; Control (FA plus bottle), 200000 cfu/5 mL blood): 0.9 days
- Flip time ([3]; Control (FA plus bottle), 2000000 cfu/5 mL blood): 0.81 days
- MIC [4]: ≤1 µg/mL
- MIC [5]: ≤1 µg/mL
- MIC [6]: ≤1 µg/mL
